Assays:
[1] = system: crabgrass, large; test: Test A pre-/postemergence herbicide test; format: in vivo, Digitaria sanguinalis
Summary of the method: (§1)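 Scoring was visual, relative to untreated controls, on a 0–100 scale after about 10 greenhouse days. Preemergence treatment used a directed soil spray over seeded loam/sand; postemergence treatment targeted one- to two-leaf plants of 2–10 cm.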

[2] = system: morningglory; test: Test A pre-/postemergence herbicide test; format: in vivo, Ipomoea spp.
Summary of the method: as §1

[3] = system: giant foxtail; test: Test A pre-/postemergence herbicide test; format: in vivo, Setaria faberii
Summary of the method: as §1

[4] = system: sedge, umbrella; test: Test C flooded paddy test; format: in vivo, Cyperus difformis; conditions: Flood
Text: (§2) Plant species in the flooded paddy test consisted of rice (Oryza sativa), sedge, umbrella (small-flower umbrella sedge, Cyperus difformis), ducksalad (Heteranthera limosa), and barnyardgrass (Echinochloa crus-galli) grown to the 2-leaf stage for testing. At time of treatment, test pots were flooded to 3 cm above the soil surface, treated by application of test compounds directly to the paddy water, and then maintained at that water depth for the duration of the test. Treated plants and controls were maintained in a greenhouse for 13 to 15 days, after which time all species were compared to controls and visually evaluated. Plant response ratings, summarized in Table C, are based on a scale of 0 to 100 where 0 is no effect and 100 is complete control. A dash (-) response means no test result.

[5] = system: barnyardgrass; test: Test A pre-/postemergence herbicide test; format: in vivo, Echinochloa crus-galli
Summary of the method: as §1

[6] = system: corn; test: Test A pre-/postemergence herbicide test; format: in vivo, Zea mays
Summary of the method: as §1

[7] = system: barnyardgrass; test: Test C flooded paddy test; format: in vivo, Echinochloa crus-galli; conditions: Flood
Text: as §2

[8] = system: velvetleaf; test: Test A pre-/postemergence herbicide test; format: in vivo, Abutilon theophrasti
Summary of the method: as §1

[9] = system: ducksalad; test: Test C flooded paddy test; format: in vivo, Heteranthera limosa; conditions: Flood
Text: as §2

[10] = system: rice; test: Test C flooded paddy test; format: in vivo, Oryza sativa; conditions: Flood
Text: as §2

[11] = system: pigweed; test: Test A pre-/postemergence herbicide test; format: in vivo, Amaranthus retroflexus
Summary of the method: as §1

[12] = system: wheat; test: Test A pre-/postemergence herbicide test; format: in vivo, Triticum aestivum
Summary of the method: as §1

[13] = Postemergence, 125 g ai/ha, 0 to 100 scale, 0 no effect, 100 complete control
[14] = Postemergence, 500 g ai/ha, 0 to 100 scale (0 no effect, 100 complete control)
[15] = Preemergence, 125 g ai/ha, visual rating on 0 to 100 scale (0 no effect, 100 complete control)
[16] = preemergence, 500 g ai/ha, 0 to 100 scale
[17] = 31 g ai/ha, scale of 0 to 100 where 0 is no effect and 100 is complete control, 13 to 15 days
[18] = 62 g ai/ha, scale of 0 to 100 where 0 is no effect and 100 is complete control, 13 to 15 days
[19] = 125 g ai/ha, scale of 0 to 100 where 0 is no effect and 100 is complete control, 13 to 15 days
[20] = Postemergence, 1000 g ai/ha, 0 to 100 scale (0 no effect, 100 complete control)
[21] = Preemergence, 1000 g ai/ha, visual rating on 0 to 100 scale (0 no effect, 100 complete control), approx. 10 days

SMILES: O=C1NCC(c2cccc(F)c2)C1C(=O)Nc1ccccc1C(F)(F)F (racemic) [Compound 2]
- Plant response rating, Crabgrass, Large [1, 13]: 50
- Plant response rating, Crabgrass, Large [1, 14]: 70
- Crabgrass, Large plant response rating [1, 15]: 90
- Plant response rating, Crabgrass, Large [1, 16]: 90
- Plant response rating, Morningglory [2, 14]: 0
- Morningglory plant response rating [2, 15]: 0
- Plant response rating, Morningglory [2, 16]: 0
- Plant response rating, Foxtail, Giant [3, 13]: 30
- Plant response rating, Foxtail, Giant [3, 14]: 60
- Foxtail, Giant plant response rating [3, 15]: 90
- Plant response rating, Foxtail, Giant [3, 16]: 90
- Plant response rating, Sedge, Umbrella [4, 17]: 0
- Plant response rating, Sedge, Umbrella [4, 18]: 0
- Plant response rating, Sedge, Umbrella [4, 19]: 0
- Plant response rating, Sedge, Umbrella ([4]; 250 g ai/ha, scale 0 to 100): 0
- Plant response rating, Barnyardgrass [5, 13]: 30
- Plant response rating, Barnyardgrass [5, 14]: 60
- Barnyardgrass plant response rating [5, 15]: 30
- Plant response rating, Barnyardgrass ([5]; preemergence, 500 g ai/ha, 0 to 100 scale (0 no effect, 100 complete control)): 60
- Plant response rating, Corn [6, 13]: 0
- Plant response rating, Corn [6, 14]: 0
- Corn plant response rating [6, 15]: 0
- Plant response rating, Corn [6, 16]: 0
- Plant response rating, Barnyardgrass [7, 17]: 0
- Plant response rating, Barnyardgrass [7, 18]: 0
- Plant response rating, Barnyardgrass [7, 19]: 0
- Plant response rating, Barnyardgrass ([7]; 250 g ai/ha, scale 0 to 100): 0
- Plant response rating, Velvetleaf [8, 14]: 0
- Velvetleaf plant response rating [8, 15]: 0
- Plant response rating, Velvetleaf [8, 16]: 0
- Plant response rating, Ducksalad [9, 17]: 0
- Plant response rating, Ducksalad [9, 18]: 0
- Plant response rating, Ducksalad [9, 19]: 0
- Plant response rating, Ducksalad ([9]; 250 g ai/ha, scale 0 to 100): 0
- Plant response rating, Rice [10, 17]: 0
- Plant response rating, Rice [10, 18]: 0
- Plant response rating, Rice [10, 19]: 0
- Plant response rating, Rice ([10]; 250 g ai/ha, scale 0 to 100): 0
- Plant response rating, Pigweed [11, 14]: 0
- Pigweed plant response rating [11, 15]: 0
- Plant response rating, Pigweed [11, 16]: 0
- Plant response rating, Wheat [12, 14]: 0
- Wheat plant response rating [12, 15]: 0
- Plant response rating, Wheat [12, 16]: 0

SMILES: O=C1NCC(c2ccc(F)c(F)c2)C1C(=O)Nc1cccc(Cl)c1 (racemic) [Compound 18]
- Plant response rating, Crabgrass, Large [1, 20]: 70
- Plant response rating, Crabgrass, Large [1, 21]: 80
- Plant response rating, Morningglory [2, 20]: 0
- Plant response rating, Morningglory [2, 21]: 0
- Plant response rating, Foxtail, Giant [3, 20]: 70
- Plant response rating, Foxtail, Giant [3, 21]: 80
- Plant response rating, Sedge, Umbrella [4, 17]: 0
- Plant response rating, Sedge, Umbrella [4, 18]: 0
- Plant response rating, Sedge, Umbrella [4, 19]: 0
- Plant response rating, Sedge, Umbrella ([4]; 250 g ai/ha, scale 0 to 100): 0
- Plant response rating, Barnyardgrass [5, 20]: 50
- Plant response rating, Barnyardgrass [5, 21]: 80
- Plant response rating, Corn [6, 20]: 0
- Plant response rating, Corn [6, 21]: 0
- Plant response rating, Barnyardgrass [7, 17]: 0
- Plant response rating, Barnyardgrass [7, 18]: 0
- Plant response rating, Barnyardgrass [7, 19]: 0
- Plant response rating, Barnyardgrass ([7]; 250 g ai/ha, scale 0 to 100): 0
- Plant response rating, Velvetleaf [8, 20]: 0
- Plant response rating, Velvetleaf [8, 21]: 0
- Plant response rating, Ducksalad [9, 17]: 0
- Plant response rating, Ducksalad [9, 18]: 0
- Plant response rating, Ducksalad [9, 19]: 0
- Plant response rating, Ducksalad ([9]; 250 g ai/ha, scale 0 to 100): 0
- Plant response rating, Rice [10, 17]: 0
- Plant response rating, Rice [10, 18]: 0
- Plant response rating, Rice [10, 19]: 0
- Plant response rating, Rice ([10]; 250 g ai/ha, scale 0 to 100): 0
- Plant response rating, Pigweed [11, 20]: 0
- Plant response rating, Pigweed [11, 21]: 0
- Plant response rating, Wheat [12, 20]: 0
- Plant response rating, Wheat [12, 21]: 0

SMILES: Cc1ccccc1NC(=O)C1C(=O)NCC1c1ccc(F)c(F)c1 (racemic) [Compound 19]
- Plant response rating, Crabgrass, Large [1, 20]: 90
- Plant response rating, Crabgrass, Large [1, 21]: 90
- Plant response rating, Morningglory [2, 20]: 0
- Plant response rating, Morningglory [2, 21]: 0
- Plant response rating, Foxtail, Giant [3, 20]: 80
- Plant response rating, Foxtail, Giant [3, 21]: 90
- Plant response rating, Sedge, Umbrella [4, 17]: 0
- Plant response rating, Sedge, Umbrella [4, 18]: 0
- Plant response rating, Sedge, Umbrella [4, 19]: 0
- Plant response rating, Sedge, Umbrella ([4]; 250 g ai/ha, scale 0 to 100): 0
- Plant response rating, Barnyardgrass [5, 20]: 90
- Plant response rating, Barnyardgrass [5, 21]: 90
- Plant response rating, Corn [6, 20]: 0
- Plant response rating, Corn [6, 21]: 0
- Plant response rating, Barnyardgrass [7, 17]: 0
- Plant response rating, Barnyardgrass [7, 18]: 0
- Plant response rating, Barnyardgrass [7, 19]: 0
- Plant response rating, Barnyardgrass ([7]; 250 g ai/ha, scale 0 to 100): 0
- Plant response rating, Velvetleaf [8, 20]: 10
- Plant response rating, Velvetleaf [8, 21]: 0
- Plant response rating, Ducksalad [9, 17]: 0
- Plant response rating, Ducksalad [9, 18]: 0
- Plant response rating, Ducksalad [9, 19]: 0
- Plant response rating, Ducksalad ([9]; 250 g ai/ha, scale 0 to 100): 0
- Plant response rating, Rice [10, 17]: 0
- Plant response rating, Rice [10, 18]: 0
- Plant response rating, Rice [10, 19]: 0
- Plant response rating, Rice ([10]; 250 g ai/ha, scale 0 to 100): 0
- Plant response rating, Pigweed [11, 20]: 0
- Plant response rating, Pigweed [11, 21]: 0
- Plant response rating, Wheat [12, 20]: 30
- Plant response rating, Wheat [12, 21]: 0

SMILES: CS(=O)(=O)c1ccccc1NC(=O)C1C(=O)NCC1c1ccc(F)c(F)c1 (racemic) [Compound 21]
- Plant response rating, Crabgrass, Large [1, 20]: 80
- Plant response rating, Crabgrass, Large [1, 21]: 90
- Plant response rating, Morningglory [2, 20]: 0
- Plant response rating, Morningglory [2, 21]: 40
- Plant response rating, Foxtail, Giant [3, 20]: 80
- Plant response rating, Foxtail, Giant [3, 21]: 90
- Plant response rating, Sedge, Umbrella [4, 17]: 0
- Plant response rating, Sedge, Umbrella [4, 18]: 0
- Plant response rating, Sedge, Umbrella [4, 19]: 0
- Plant response rating, Sedge, Umbrella ([4]; 250 g ai/ha, scale 0 to 100): 0
- Plant response rating, Barnyardgrass [5, 20]: 90
- Plant response rating, Barnyardgrass [5, 21]: 90
- Plant response rating, Corn [6, 20]: 0
- Plant response rating, Corn [6, 21]: 0
- Plant response rating, Barnyardgrass [7, 17]: 0
- Plant response rating, Barnyardgrass [7, 18]: 0
- Plant response rating, Barnyardgrass [7, 19]: 0
- Plant response rating, Barnyardgrass ([7]; 250 g ai/ha, scale 0 to 100): 0
- Plant response rating, Velvetleaf [8, 20]: 60
- Plant response rating, Velvetleaf [8, 21]: 50
- Plant response rating, Ducksalad [9, 17]: 0
- Plant response rating, Ducksalad [9, 18]: 0
- Plant response rating, Ducksalad [9, 19]: 50
- Plant response rating, Ducksalad ([9]; 250 g ai/ha, scale 0 to 100): 85
- Plant response rating, Rice [10, 17]: 0
- Plant response rating, Rice [10, 18]: 0
- Plant response rating, Rice [10, 19]: 0
- Plant response rating, Rice ([10]; 250 g ai/ha, scale 0 to 100): 0
- Plant response rating, Pigweed [11, 21]: 40
- Plant response rating, Wheat [12, 20]: 30
- Plant response rating, Wheat [12, 21]: 20

From patent US10294202B2, “Pyrrolidinones as herbicides” (FMC Corporation, priority 2013, dated 2019)
